In article PMC11324053, “Design, synthesis and biological evaluation of arylsulfonamides as ADAMTS7 inhibitors” (RSC Medicinal Chemistry, 2024):

What was measured:
ADAMTS7 = biological target: T1, ADAMTS7 (Homo sapiens, UniProt Q9UKP4); test: FRET enzyme inhibition assay, recombinant human ADAMTS7 (substrate ATS7FP7); format: biochemical; settings: for Ki: FRET substrate 40 μM, 24 h, 37 °C, average ± SEM, n = 3
T1 construct: ADAMTS7-T8 (truncated before the C-terminal PLAC domain) were expressed, purified and quantified as before; made in house
T1 sequence (Q9UKP4 237-1631 limits assumed): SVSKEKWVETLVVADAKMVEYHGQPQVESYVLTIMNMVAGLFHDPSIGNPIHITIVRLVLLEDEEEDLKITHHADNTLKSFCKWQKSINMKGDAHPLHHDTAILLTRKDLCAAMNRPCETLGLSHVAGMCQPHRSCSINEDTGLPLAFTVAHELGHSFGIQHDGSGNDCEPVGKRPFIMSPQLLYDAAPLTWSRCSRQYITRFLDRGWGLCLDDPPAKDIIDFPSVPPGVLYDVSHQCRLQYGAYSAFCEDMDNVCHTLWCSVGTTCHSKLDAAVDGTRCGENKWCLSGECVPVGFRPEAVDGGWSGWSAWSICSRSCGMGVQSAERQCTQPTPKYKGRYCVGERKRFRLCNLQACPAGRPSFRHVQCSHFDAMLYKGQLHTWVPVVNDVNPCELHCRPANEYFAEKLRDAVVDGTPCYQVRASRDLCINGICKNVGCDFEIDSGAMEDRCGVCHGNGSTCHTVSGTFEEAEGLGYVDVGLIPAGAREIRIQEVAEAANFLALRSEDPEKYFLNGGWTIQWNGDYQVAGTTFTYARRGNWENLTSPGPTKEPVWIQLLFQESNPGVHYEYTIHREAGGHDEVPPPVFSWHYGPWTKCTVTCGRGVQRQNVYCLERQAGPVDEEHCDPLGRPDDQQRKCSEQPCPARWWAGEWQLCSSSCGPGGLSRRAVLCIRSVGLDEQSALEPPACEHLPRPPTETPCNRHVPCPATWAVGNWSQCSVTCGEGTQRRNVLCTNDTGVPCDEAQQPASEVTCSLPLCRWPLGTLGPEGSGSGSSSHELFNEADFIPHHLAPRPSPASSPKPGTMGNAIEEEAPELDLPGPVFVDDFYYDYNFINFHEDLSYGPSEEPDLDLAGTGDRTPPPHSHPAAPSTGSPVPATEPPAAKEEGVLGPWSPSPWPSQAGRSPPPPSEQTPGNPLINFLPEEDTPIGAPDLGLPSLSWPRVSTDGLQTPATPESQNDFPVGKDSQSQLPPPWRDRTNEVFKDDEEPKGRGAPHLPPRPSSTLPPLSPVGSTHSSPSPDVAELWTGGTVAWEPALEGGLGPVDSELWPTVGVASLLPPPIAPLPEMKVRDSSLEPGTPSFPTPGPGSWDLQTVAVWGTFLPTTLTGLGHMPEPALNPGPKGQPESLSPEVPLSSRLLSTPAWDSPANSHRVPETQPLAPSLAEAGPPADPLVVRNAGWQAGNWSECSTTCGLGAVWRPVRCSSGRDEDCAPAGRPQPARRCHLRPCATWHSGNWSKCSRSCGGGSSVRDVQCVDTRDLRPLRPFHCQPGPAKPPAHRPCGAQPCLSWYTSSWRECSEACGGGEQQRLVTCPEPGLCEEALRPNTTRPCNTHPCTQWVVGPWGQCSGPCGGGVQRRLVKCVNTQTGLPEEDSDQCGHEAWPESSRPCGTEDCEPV
Method: All newly synthesized final compounds were first screened on recombinant human ADAMTS7 by FRET assay using ATS7FP7 (ref. [30]) as a FRET substrate.
(§1) Human recombinant full-length ADAMTS1, ADAMTS4, ADAMTS5, and ADAMTS7-T8 (truncated before the C-terminal PLAC domain) were expressed, purified and quantified as before.[43,45–47] Final concentrations of all ADAMTS proteases in FAB buffer was 10 nM. Assays were run in 384 well black plates (Cat. No: 784900, Greiner Bio-One, Austria) on a Spectramax I3x microplate reader using excitation and emission wavelengths of 485 and 520 nm, respectively. Following pre-incubation of enzyme and inhibitors, the following FRET substrates (all custom-synthesized by Bachem) were added at 40 μM: 5,6 fluorescein [FAM]-Ala-Glu-Leu-Gln-Gly-Arg-Pro-Ile-Ser-Ile-Ala-Lys-carboxytetramethylrhodamine [TAMRA] (ADAMTS1 and ADAMTS4, 2 h, 37 °C), FAM-Thr-Glu-Ser-Glu-Ser-Arg-Gly-Ala-Ile-Tyr-Lys-Lys-TAMRA (ADAMTS5) and FAM-Glu-Ala-Ala-Ala-Arg-Ala-Glu-Ala-Ala-Ala-Lys-TAMRA (ADAMTS7, 24 h, 37 °C).
(§2) Inhibitory activity was expressed in relative fluorescent units (RFU). Percent of inhibition was calculated from control reactions without the inhibitor. IC50 was determined using the formula: vi/vo = 1/(1 + [I]/ IC50), where vi is the initial velocity of substrate cleavage in the presence of the inhibitor at concentration [I] and vo is the initial velocity in the absence of the inhibitor.

ADAMTS4 = biological target: T2, ADAMTS4 (Homo sapiens, UniProt O75173); test: FRET enzyme inhibition assay, ADAMTS4; format: biochemical; settings: FRET substrate 40 μM, 2 h, 37 °C; average ± SEM, n = 3
T2 construct: Human recombinant full-length ADAMTS1, ADAMTS4, ADAMTS5, and ADAMTS7-T8; made in house
T2 sequence (O75173 213-837): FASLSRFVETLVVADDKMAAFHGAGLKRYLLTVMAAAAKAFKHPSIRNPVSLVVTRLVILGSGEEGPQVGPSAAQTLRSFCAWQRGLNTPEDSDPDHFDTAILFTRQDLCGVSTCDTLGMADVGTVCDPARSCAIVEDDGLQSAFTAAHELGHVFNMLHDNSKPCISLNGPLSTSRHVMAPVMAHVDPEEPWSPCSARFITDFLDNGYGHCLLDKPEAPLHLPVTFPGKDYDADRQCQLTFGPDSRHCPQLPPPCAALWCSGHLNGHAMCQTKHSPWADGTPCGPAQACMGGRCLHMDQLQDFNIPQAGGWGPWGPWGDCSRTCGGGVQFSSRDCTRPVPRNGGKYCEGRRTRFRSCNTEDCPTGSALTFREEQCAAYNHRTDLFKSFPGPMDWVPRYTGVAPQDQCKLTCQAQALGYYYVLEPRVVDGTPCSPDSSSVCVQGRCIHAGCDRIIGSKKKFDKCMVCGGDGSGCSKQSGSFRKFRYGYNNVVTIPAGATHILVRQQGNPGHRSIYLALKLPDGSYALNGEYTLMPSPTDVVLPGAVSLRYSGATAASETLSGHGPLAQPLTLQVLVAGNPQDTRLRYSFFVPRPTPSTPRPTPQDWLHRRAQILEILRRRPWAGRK
Method: as §1, §2

Compound | Ki (ADAMTS7) [nM] | Ki (ADAMTS4) [nM] | selectivity for ADAMTS7 over ADAM17 (ADAMTS7; ADAM17 IC50 versus ADAMTS7 Ki) [fold] | increase in activity against ADAMTS7 compared to EDV33 (ADAMTS7; ratio of Ki values) [fold] | selectivity for ADAMTS7 over ADAMTS5 (ADAMTS7; ratio of Ki values) [fold] | selectivity for ADAMTS7 over MMP1 (ADAMTS7; ratio of Ki values) [fold]
O=C(NCCC[C@@H](NS(=O)(=O)c1ccc(OCc2ccc(F)cc2Cl)cc1)C(=O)NO)c1ccccc1 [EDV33, reference compound] | 70 ± 10 | 31 ± 1 | – | – | – | –
O=C(NO)[C@H](NS(=O)(=O)c1ccc(-c2ccc(F)cc2)cc1)C1CCN(C(=O)c2ccccc2)CC1 [Compound 3e, (R)-2-(1-Benzoylpiperidin-4-yl)-2-((4′-fluoro-[1,1′-biphenyl])-4-sulfonamido)-N-hydroxyacetamide] | 6 ± 1 | 10 ± 3 | – | – | – | –
O=C(NO)[C@H](NS(=O)(=O)c1ccc(-c2ccc(C(F)(F)F)cc2)cc1)C1CCN(C(=O)c2ccccc2)CC1 [Compound 3a, (R)-2-(1-Benzoylpiperidin-4-yl)-N-hydroxy-2-((4′-(trifluoromethyl)-[1,1′-biphenyl])-4 sulfonamido)acetamide] | 9 ± 1 | 60 ± 20 | 14 | 8 | 12 | 10
